According to US20260248783A1 (ASCLETIS BIOSCIENCE CO., LTD., priority 2021, published 2026):

Molecular target: T1, PD-1/PD-L1 (Homo sapiens, UniProt Q9NZQ7)
T1 construct: Recombinant human PD-L1 protein (19-238) with a Histag at the C-terminus; purchased AcroBiosystems PD1-H5229 (PD-L1); PD1-H5257 (PD-1)
Test: PD-1/PD-L1 Homogeneous Time-Resolved Fluorescence (HTRF) Binding Assay
Details: PD-1/PD-L1 HTRF activity; 3 nM PD1, 10 nM PD-L1, 25° C.
Protocol: Example 107. PD-1/PD-L1 Homogeneous Time-Resolved Fluorescence (HTRF) Binding Assay
The assays were conducted in a standard black 384-well polystyrene plate with a final volume of 20 μL. Inhibitors were first serially diluted in DMSO and then added to the plate wells before the addition of other reaction components. The final concentration of DMSO in the assay was 1%. The assays were carried out at 25° C. in the PBS buffer (pH 7.4) with 0.05% Tween-20 and 0.1% BSA. Recombinant human PD-L1 protein (19-238) with a Histag at the C-terminus was purchased from AcroBiosystems (PD1-H5229). Recombinant human PD-1 protein (25-167) with Fe tag at the C-terminus was also purchased from AcroBiosystems (PD1-H5257). PD-L1 and PD-1 proteins were diluted in the assay buffer and 10 μL was added to the plate well. Plates were centrifuged and proteins were preincubated with inhibitors for 40 minutes. The incubation was followed by the addition of 10 μL of HTRF detection buffer supplemented with Europium cryptate-labeled anti-human IgG (PerkinElmer-AD0212) specific for Fe and anti-His antibody conjugated to SureLight®—Allophycocyanin (APC, PerkinElmer-AD0059H). After centrifugation, the plate was incubated at 25° C. for 60 min. before reading on a PHERAstar FS plate reader (665 nm/620 nm ratio). Final concentrations in the assay were […], 10 nM PD-L1, 1 nM europium anti-human IgG and 20 nM anti-His-Allophycocyanin. IC50 determination was performed by fitting the curve of percent control activity versus the log of the inhibitor concentration.

T1 sequence (Q9NZQ7 19-238): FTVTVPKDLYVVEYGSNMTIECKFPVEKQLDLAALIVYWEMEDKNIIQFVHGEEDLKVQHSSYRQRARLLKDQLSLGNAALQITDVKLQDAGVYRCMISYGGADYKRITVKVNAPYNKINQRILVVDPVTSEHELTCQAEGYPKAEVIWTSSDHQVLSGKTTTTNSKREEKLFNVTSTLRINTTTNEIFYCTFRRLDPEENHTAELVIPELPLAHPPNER

Structure (SMILES)	IC50
Cc1cn2cc(-c3cccc(-c4cccc(-c5cc6c(=O)n(CCNCC7CCCN7)c(C)cn6c5)c4Cl)c3Cl)cc2c(=O)n1CCNCC1CCCN1 (stereo not drawn) [Compound 55, 7,7′-(2,2′-dichloro-[1,1′-biphenyl]-3,3′-diyl)bis(3-methyl-2-(2-((pyrrolidin-2-ylmethyl)amino)ethyl)pyrrolo[1,2-a]pyrazin-1(2H)-one)]	≥ 100 nM
Cc1cn2cc(-c3cccc(-c4cccc(-c5cc6c(=O)n(CCNCC(O)CC(=O)O)c(C)cn6c5)c4Cl)c3Cl)cc2c(=O)n1CCNCC(O)CC(=O)O (stereo not drawn) [Compound 56, 4,4′-((((2,2′-dichloro-[1,1′-biphenyl]-3,3′-diyl)bis(3-methyl-1-oxopyrrolo[1,2-a]pyrazine-7,2(1H)-diyl))bis(ethane-2,1-diyl))bis(azanediyl))bis(3-hydroxybutanoic acid)]	≥ 100 nM
Cc1cn2nc(-c3cccc(-c4cccc(-c5cc6c(=O)n(CCN[C@@H](CN(C)C)C(=O)O)c(C)cn6n5)c4Cl)c3Cl)cc2c(=O)n1CCN[C@@H](CN(C)C)C(=O)O [Compound 69, (2S,2'S)-2,2′-((((2,2′-dichloro-[1,1′-biphenyl]-3,3′-diyl)bis(6-methyl-4-oxopyrazolo[1,5-a]pyrazine-2,5(4H)-diyl))bis(ethane-2,1-diyl))bis(azanediyl))bis(3-(dimethylamino)propanoic acid)]	≥ 100 nM
Cc1cn2nc(-c3cccc(-c4cccc(-c5cc6c(=O)n(CCCN[C@@H](CO)C(=O)O)c(C)cn6n5)c4Cl)c3Cl)cc2c(=O)n1CCCN[C@@H](CO)C(=O)O [Compound 70, (2S,2'S)-2,2′-((((2,2′-dichloro-[1,1′-biphenyl]-3,3′-diyl)bis(6-methyl-4-oxopyrazolo[1,5-a]pyrazine-2,5(4H)-diyl))bis(propane-3,1-diyl))bis(azanediyl))bis(3-hydroxypropanoic acid)]	10 to 100 nM
CC(=O)NCCNCc1cn2cc(-c3cccc(-c4cccc(-c5cc6c(=O)[nH]c(CNCCNC(C)=O)cn6c5)c4Cl)c3Cl)cc2c(=O)[nH]1 [Compound 72, N,N′-(((((2,2′-dichloro-[1,1′-biphenyl]-3,3′-diyl)bis(1-oxo-1,2-dihydropyrrolo[1,2-a]pyrazine-7,3-diyl))bis(methylene))bis(azanediyl))bis(ethane-2,1-diyl))diacetamide]	10 to 100 nM
CC(=O)NCCNCc1cn2cc(-c3cccc(-c4cccc(-c5cc6c(=O)n(C[C@@H]7CCC(=O)N7)c(CNCCNC(C)=O)cn6c5)c4Cl)c3Cl)cc2c(=O)n1C[C@@H]1CCC(=O)N1 [Compound 73, N,N′-(((((2,2′-dichloro-[1,1′-biphenyl]-3,3′-diyl)bis(1-oxo-2-(((S)-5-oxopyrrolidin-2-yl)methyl)-1,2-dihydropyrrolo[1,2-a]pyrazine-7,3-diyl))bis(methylene))bis(azanediyl))bis(ethane-2,1-diyl))diacetamide]	10 to 100 nM
O=c1[nH]c(C[C@@H]2CCCN2)nn2cc(-c3cccc(-c4cccc(-c5cc6c(=O)[nH]c(C[C@@H]7CCCN7)nn6c5)c4Cl)c3Cl)cc12 [Compound 75, 6′-(2,2′-dichloro-[1,1′-biphenyl]-3,3′-diyl)bis(2-(((S)-pyrrolidin-2-yl)methyl)pyrrolo[2,1-f][1,2,4]triazin-4(3H)-one)]	10 to 100 nM

Further lines, results first:

IC50	Structure (SMILES)
10 to 100 nM	Cc1cn2cc(-c3cccc(-c4cccc(-c5cc6c(=O)n(CCN[C@@H](CCO)C(=O)O)c(C)cn6c5)c4Cl)c3Cl)cc2c(=O)n1CCN[C@@H](CCO)C(=O)O [Compound 58, (2S,2'S)-2,2′-((((2,2′-dichloro-[1,1′-biphenyl]-3,3′-diyl)bis(3-methyl-1-oxopyrrolo[1,2-a]pyrazine-7,2(1H)-diyl))bis(ethane-2,1-diyl))bis(azanediyl))bis(4-hydroxybutanoic acid)]
10 to 100 nM	Cc1cn2nc(-c3cccc(-c4cccc(-c5cc6c(=O)n(CCN[C@H](C(=O)O)[C@@H](C)O)c(C)cn6n5)c4Cl)c3Cl)cc2c(=O)n1CCN[C@H](C(=O)O)[C@@H](C)O [Compound 60, (2S,2'S,3R,3′R)-2,2′-((((2,2′-dichloro-[1,1′-biphenyl]-3,3′-diyl)bis(6-methyl-4-oxopyrazolo[1,5-a]pyrazine-2,5(4H)-diyl))bis(ethane-2,1-diyl))bis(azanediyl)) bis(3-hydroxybutanoic acid)]
10 to 100 nM	Cc1cn2nc(-c3cccc(-c4cccc(-c5cc6c(=O)n(CCN[C@H](CO)C(=O)O)c(C)cn6n5)c4Cl)c3Cl)cc2c(=O)n1CCN[C@H](CO)C(=O)O [Compound 61, (2R,2′R)-2,2′-((((2,2′-dichloro-[1,1′-biphenyl]-3,3′-diyl)bis(6-methyl-4-oxopyrazolo[1,5-a]pyrazine-2,5(4H)-diyl))bis(ethane-2,1-diyl))bis(azanediyl))bis(3-hydroxypropanoic acid)]
10 to 100 nM	Cc1cn2nc(-c3cccc(-c4cccc(-c5cc6c(=O)n(CCN[C@@H](CCO)C(=O)O)c(C)cn6n5)c4Cl)c3Cl)cc2c(=O)n1CCN[C@@H](CCO)C(=O)O [Compound 62, (2S,2'S)-2,2′-((((2,2′-dichloro-[1,1′-biphenyl]-3,3′-diyl)bis(6-methyl-4-oxopyrazolo[1,5-a]pyrazine-2,5(4H)-diyl))bis(ethane-2,1-diyl))bis(azanediyl))bis(4-hydroxybutanoic acid)]
10 to 100 nM	Cc1nn2cc(-c3cccc(-c4cccc(-c5cc6c(=O)n(CCN[C@@H](CO)C(=O)O)c(C)nn6c5)c4Cl)c3Cl)cc2c(=O)n1CCN[C@@H](CO)C(=O)O [Compound 64, (2S,2'S)-2,2′-((((2,2′-dichloro-[1,1′-biphenyl]-3,3′-diyl)bis(2-methyl-4-oxopyrrolo[2,1-f][1,2,4]triazine-6,3(4H)-diyl))bis(ethane-2,1-diyl))bis(azanediyl))bis(3-hydroxypropanoic acid)]
10 to 100 nM	CCc1nn2cc(-c3cccc(-c4cccc(-c5cc6c(=O)n(CCN[C@@H](CO)C(=O)O)c(CC)nn6c5)c4Cl)c3Cl)cc2c(=O)n1CCN[C@@H](CO)C(=O)O [Compound 65, (2S,2'S)-2,2′-((((2,2′-dichloro-[1,1′-biphenyl]-3,3′-diyl)bis(2-ethyl-4-oxopyrrolo[2,1-f][1,2,4]triazine-6,3(4H)-diyl))bis(ethane-2,1-diyl))bis(azanediyl))bis(3-hydroxypropanoic acid)]
10 to 100 nM	CC(=O)NC[C@H](NCCn1c(C)cn2nc(-c3cccc(-c4cccc(-c5cc6c(=O)n(CCN[C@@H](CNC(C)=O)C(=O)O)c(C)cn6n5)c4Cl)c3Cl)cc2c1=O)C(=O)O [Compound 68, (2S,2'S)-2,2′-((((2,2′-dichloro-[1,1′-biphenyl]-3,3′-diyl)bis(6-methyl-4-oxopyrazolo[1,5-a]pyrazine-2,5(4H)-diyl))bis(ethane-2,1-diyl))bis(azanediyl))bis(3-acetamidopropanoic acid)]
< 10 nM	Cn1c(CCN[C@@H](CO)C(=O)O)cn2nc(-c3cccc(-c4cccc(-c5cc6c(=O)n(C)c(CCN[C@@H](CO)C(=O)O)cn6n5)c4Cl)c3Cl)cc2c1=O [Compound 71, (2S,2'S)-2,2′-((((2,2′-dichloro-[1,1′-biphenyl]-3,3′-diyl)bis(5-methyl-4-oxo-4,5-dihydropyrazolo[1,5-a]pyrazine-2,6-diyl))bis(ethane-2,1-diyl))bis(azanediyl))bis(3-hydroxypropanoic acid)]
